We go through 22 molecules from US20110009379A1, “INDOLINONE COMPOUND” (ASTELLAS PHARMA INC., priority 2008, published 2011).

One data set concerns gastric emptying of rats. Kind of data set: Activity to gastric emptying of TRPA1 agonist (phenol red, rats). As to conditions: Rattus norvegicus; male wistar rats, oral administration, versus control animals; read-out: ED50 (amount which suppresses 50% of gastric emptying). The data set is classed as in vivo. From the text:
When EC cell is stimulated by content of a gastrointestinal tract, 5-HT is secreted. The secreted 5-HT promotes the secretion or motility through a 5-HT receptor present in intestinal nerve plexus or gastrointestinal smooth muscle. The secreted 5-HT is instantly taken into a cell by its specific transporter, and is metabolized by […]. Thus, while it is considerably difficult to directly measure the secreted 5-HT concentration, it has been known that gastric emptying is delayed as a physiological activity through 5-HT in rodents. In order to verify in vivo activity through 5-HT of the compound to be tested, activity to gastric emptying of rats by various TRPA1 agonists was studied.
In the experiment, male wistar rats (body weight 290 to 360 g) were used. The animals were purchased from Japan SLC (Shizuoka). The animals were allowed to drink water freely under a constitutive environment.
5 minutes after the medicine was orally administered, 0.05% phenol red solution (1.5 mL) was orally administered. After 15 minutes, rats were put painlessly to death by cervical vertebral dislocation, their stomachs were exenterated, and phenol red was eluted with 0.1M aqueous NaOH solution (5 mL) from the exenterated stomachs. 20% aqueous trichloroacetic acid solution (0.1 mL) was added to the NaOH solution (0.5 mL), followed by stirring and centrifugation at 15,000 rpm, at 4° C., for 10 minutes. 0.5M aqueous NaOH solution (0.2 mL) was added to the supernatant (0.05 mL), followed by stirring, and absorbance at 560 nm was measured using an absorption spectrometer (spectrometer spectramax M2; Molecular Devices, CA, USA).
A gastric emptying was calculated by the following calculating formula.
Gastric emptying (%)=100−(A/B)×100
A: amount of phenol red remaining in stomach
B: amount of phenol red remaining in stomach just after administering phenol red
ED50 values (amount of the compound to be tested which suppresses 50% of gastric emptying, with respect to the control animals without administering the compound to be tested) of some of the compounds of the formula (I) are shown in Table 2. In this connection, comparative compound 1 and comparative compound 2 are (3E)-1-methyl-3-(2-oxopropyridene)-1,3-dihydro-2H-indol-2-one, and (3E)-3-(2-oxopropyridene)-1-prop-2-in-1-yl-1,3-dihydro-2H-indol-2-one described in Non Patent Document 4 above, and has the following chemical structures, respectively.

The target in a further data set is T1, human TRPA1 (Homo sapiens, UniProt O75762, K186N/R3C/R58T).
T1 construct: expressed in transfected cells; pcDNA3.1(+) vector)
Kind of data set: Measurement of TRPA1 activation activity (intracellular calcium, FLIPR, HEK293 cells stably expressing human TRPA1). The data set is classed as cell-based. The following applies: change of intracellular calcium concentration. Here is the method:
10 ng of Human brain mRNA (Clontech Co.) was treated with DNase, and then was reverse transcribed using kit for reverse transcription-polymerase chain reaction (RT-PCR) (SUPERSCRIPT First-Strand Synthesis System for RT-PCR; Invitrogen Co.) to synthesize the first strand cDNA. PCR using a hot start method was performed using the first strand cDNA as a template and Taq DNA polymerase (LA Taq DNA polymerase; TAKARA SHUZO). The PCR was performed using oligonucleotides consisting of the nucleotide sequences, represented by sequence number 2 as a sense primer and sequence number 3 as an antisense primer, in which firstly, heat denaturation was performed at 98° C. (1 minute), and then a cycle of 98° C. (15 seconds)/56° C. (30 seconds)/72° C. (5 minutes) was repeated 35 times. As a result, a DNA fragment of about 3.3 kbp was amplified.
The DNA fragment was cloned to pCR-TOPO vector using a cloning kit (TOPO XL PCR Cloning Kit; Invitrogen). The obtained plasmid DNA was digested with restriction enzymes KpnI and HindIII, and then was cloned using plasmid pcDNA 3.1(+)(Invitrogen). In this connection, the plasmid pcDNA 3.1(+) has a promoter sequence derived from cytemegalovirus, and can be used in order to express a protein in animal cells.
The nucleotide sequences of the obtained clones were analyzed using DNA sequencer (ABI3700 DNA Sequencer; Applied Biosystems) by dideoxyterminator method, and the nucleotide sequence represented by sequence number 1 was obtained. Furthermore, when these sequences were translated to amino acid sequences, the amino acid sequence represented by sequence number 1 was obtained.
After constructing the expression vector of the human TRPA1 gene, selection by G418 was performed from the HEK293 cells which temporarily expressed TRPA1 by transfection operation to obtain cells stably expressing TRPA1. The above operation was performed according to known methods (experimental medicine supplementary volume, “Cultivation Cell Experimental Methods for Molecular Biology Study” published by Toshio Kuroki, Namho Hue and Kazuhiro Chida, 1995, Yodosha).
In order to measure the change of the intracellular calcium concentration in the cells stably expressing the human TRPA1, the change of the intracellular calcium concentration when a compound to be tested was added was measured using FLIPR (Molecular Device).
In order to measure the change of the intracellular calcium concentration with FLIPR, the following pretreatment was performed. First of all, assay buffer was prepared which was for adding fluorescent pigment Fluo4-AM (DOJIN) to the cells or washing the cells just before performing FLIPR assay. To a solution (hereinafter, HBSS/HEPES solution) where 20 mL of 1M HEPES (pH 7.4; Invitrogen) was added to 1000 mL of a physiological saline buffer (Hank's Balanced Salt Solution; HBSS) (Invitrogen), was added 10 mL of a solution where 710 mg of probenecid (Sigma) was dissolved into 5 mL of 1M aqueous NaOH solution and 5 mL of HBSS/HEPES solution was further added and mixed, and the assay buffer was thus prepared. Then, 50 μg of Fluo4-AM was dissolved into 22 μL of DMSO (DOJIN), the same amount of 20% pluronic acid (Molecular Probes) was added thereto and mixed, and the mixture was added to the 10.6 mL of the assay buffer where 105 μL of fetal bovine serum was added, to prepare a fluorescent pigment solution. The medium of the cells stably expressing TRPA1 was removed, 100 μL per well of the fluorescent pigment solution was dispensed immediately, followed by cultivation in a CO2 cultivator for 1 hour, and the fluorescent pigment was soaked in the cells. The cells after cultivation were washed using the assay buffer, followed by being set in FLIPR. Furthermore, a test sample, which was added to the cells stably expressing TRPA1, was prepared by using the assay buffer, and at the same time, was set in FLIPR. […]

The target of the next data set is Cytochrome P450(2D6) (Homo sapiens, UniProt P10635). Kind of data set: Cytochrome P450(2D6) enzyme inhibition test. The data set is classed as in vitro ADME. As to conditions: CYP2D6, fluorescent substrate 1.5 μmol/L, 37° C., 20 minutes. Here is the method:
The experiment was performed in accordance with the method of Crespi et al. (Analytical Biochemistry, 248, 188-190, 1997).
As a substrate, 3-[2-(N,N-diethyl-N-methylamino)ethyl]-7-methoxy-4-methyl coumarine (1.5 μmol/L) a compound to be tested (3.1×10^−7 to 2×10^−5 M) and an enzyme (2.5×10^−8 M) were incubated at 37° C. for 20 minutes in total of […] of 100 mM phosphorous buffer (pH=7.4) including 8.2 mM NADP+, 0.41 mM glucose-6-phosphate, 0.41 mM MgCl2 and 0.4 Units/mL glucose-6-phosphate dehydrogenase, using 96 well plates. Then, 0.5 M aqueous 2-amino-2-hydroxymethyl-1,3-propandiol solution containing 80% acetonitrile was added to stop the reaction, fluorescence intensity (excitation wavelength; 390 nm, fluorescent wavelength; 460 nm) was measured with a fluorescent plate reader. An inhibition ratio was calculated with the following formula, and the test compound concentration when the inhibition ratio is 50% (IC50) was obtained.
C1: fluorescence intensity in the presence of the test compound and enzyme at know concentrations, and the substrate
C0: fluorescence intensity in the presence of the enzyme and substrate, without the test compound
B1: fluorescence intensity of blank well

A value given as a limit tells only on which side of the number the result lay.

T1 sequence (O75762 whole entry R3C/R58T/K186N): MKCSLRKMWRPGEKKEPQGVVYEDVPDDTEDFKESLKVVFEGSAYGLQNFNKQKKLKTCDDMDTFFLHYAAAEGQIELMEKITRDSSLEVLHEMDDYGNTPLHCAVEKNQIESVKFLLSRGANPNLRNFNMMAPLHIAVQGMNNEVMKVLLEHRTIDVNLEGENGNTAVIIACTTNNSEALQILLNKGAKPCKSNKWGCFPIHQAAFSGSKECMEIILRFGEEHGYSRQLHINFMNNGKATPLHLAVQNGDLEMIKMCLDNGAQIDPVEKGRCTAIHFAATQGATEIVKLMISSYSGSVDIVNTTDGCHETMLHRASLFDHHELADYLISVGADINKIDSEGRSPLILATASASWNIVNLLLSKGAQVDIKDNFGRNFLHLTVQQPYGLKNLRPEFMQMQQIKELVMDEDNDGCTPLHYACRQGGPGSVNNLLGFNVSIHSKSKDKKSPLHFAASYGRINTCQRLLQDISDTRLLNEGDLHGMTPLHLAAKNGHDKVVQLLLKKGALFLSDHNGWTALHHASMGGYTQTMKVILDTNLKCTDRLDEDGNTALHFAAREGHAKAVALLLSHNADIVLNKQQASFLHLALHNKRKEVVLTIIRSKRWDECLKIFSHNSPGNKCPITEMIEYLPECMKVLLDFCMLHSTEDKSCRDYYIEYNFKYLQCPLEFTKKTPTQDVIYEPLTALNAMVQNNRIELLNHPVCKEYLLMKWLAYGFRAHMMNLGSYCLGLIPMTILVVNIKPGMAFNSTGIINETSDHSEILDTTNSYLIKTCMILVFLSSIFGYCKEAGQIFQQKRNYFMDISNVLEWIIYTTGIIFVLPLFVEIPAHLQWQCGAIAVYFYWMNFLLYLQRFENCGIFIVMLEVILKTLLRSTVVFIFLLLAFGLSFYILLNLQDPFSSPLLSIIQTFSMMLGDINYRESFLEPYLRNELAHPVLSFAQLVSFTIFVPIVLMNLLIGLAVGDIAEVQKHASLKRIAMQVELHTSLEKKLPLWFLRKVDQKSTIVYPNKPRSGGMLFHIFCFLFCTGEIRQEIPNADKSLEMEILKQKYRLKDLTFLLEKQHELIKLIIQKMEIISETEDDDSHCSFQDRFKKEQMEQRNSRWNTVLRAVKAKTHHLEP
Chain of Cytochrome P450(2D6) (P10635 whole entry): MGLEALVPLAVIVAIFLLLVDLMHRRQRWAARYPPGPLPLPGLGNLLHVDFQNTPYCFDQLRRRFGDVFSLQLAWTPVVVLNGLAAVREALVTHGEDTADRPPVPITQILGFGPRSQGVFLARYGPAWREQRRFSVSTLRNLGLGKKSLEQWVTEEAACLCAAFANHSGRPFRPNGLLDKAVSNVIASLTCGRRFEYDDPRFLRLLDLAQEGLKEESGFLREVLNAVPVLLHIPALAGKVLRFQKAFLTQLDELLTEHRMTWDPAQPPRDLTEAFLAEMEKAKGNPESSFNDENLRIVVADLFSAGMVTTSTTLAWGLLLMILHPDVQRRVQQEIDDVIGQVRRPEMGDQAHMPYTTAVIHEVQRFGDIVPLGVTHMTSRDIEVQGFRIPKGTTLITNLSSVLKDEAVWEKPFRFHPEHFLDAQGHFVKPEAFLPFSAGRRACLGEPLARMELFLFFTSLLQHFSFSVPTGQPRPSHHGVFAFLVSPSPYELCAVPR

By melting point is commonly meant the temperature, or range, at which the solid turns liquid. By ED50 is commonly meant the dose at which the effect has come halfway, by size or by number of responders. `O=C(O)/C=C1/C(=O)N(Cc2ccccc2)c2c(F)cccc21` [Example 18, (2E)-(1-benzyl-7-fluoro-2-oxo-1,2-dihydro-3H-indol-3-ylidene)acetic acid] showed a melting point of 168 to 170 °C. For the same molecule, the ED50 in the data set with gastric emptying of rats was found to be 3.6 mg/kg.

Regarding `NC(=O)/C=C1/C(=O)N(Cc2ccccc2)c2ccccc21` [Example 20], the 50% effective dose (ED50) with gastric emptying of rats stood at 4.4 mg/kg.

`CC(C)(C)CN1C(=O)/C(=C/C(=O)O)c2ccccc21` [Example 25]: the 50% effective dose (ED50) with gastric emptying of rats came to 0.31 mg/kg.

One may read the EC50 as the midpoint of the concentration-response curve. As to `NC(=O)/C=C1/C(=O)N(CC2CCCC2)c2c(F)cccc21` [Example 29], the concentration for a half-maximal effect (EC50) on human TRPA1 turned out to be 0.66 µM.

For `O=C(/C=C1/C(=O)N(CC2CCCC2)c2c(F)cccc21)N1CCCC1` [Example 30], the ED50 in the data set with gastric emptying of rats came out at 0.42 mg/kg.

`O=C(/C=C1/C(=O)N(CC2CCCC2)c2c(F)cccc21)N1CCC1` [Example 33]: the concentration giving a half-maximal response (EC50) on human TRPA1 amounted to 1.3 µM.

Regarding `CCC(CC)CN1C(=O)/C(=C/C(=O)O)c2cccc(F)c21` [Example 36], the ED50 in the data set on gastric emptying of rats amounted to 0.069 mg/kg.

The term IC50 denotes the concentration that inhibits the measured activity by half. Higher therefore signals weaker potency. `O=C(O)/C=C1/C(=O)N(CC2CC2)c2c(F)cccc21` [Example 37, (2E)-[1-(cyclopropylmethyl)-7-fluoro-2-oxo-1,2-dihydro-3H-indol-3-ylidene]acetic acid] registered a melting point of 171 to 173 °C. This molecule also gave an IC50 against Cytochrome P450(2D6) of over 50 µM.

Take `COc1cccc(CN2C(=O)/C(=C/C(=O)O)c3cccc(Cl)c32)c1` [Example 39]: the ED50 in the data set on gastric emptying of rats was determined as 0.24 mg/kg.

For the molecule `O=C(/C=C1/C(=O)N(CC2CCCC2)c2c(F)cccc21)N1CCOCC1` [Example 40], the ED50 with gastric emptying of rats worked out at 0.59 mg/kg.

Turning to `CN(C)C(=O)/C=C1/C(=O)N(CC2CCCC2)c2c(F)cccc21` [Example 43, (2E)-2-[1-(cyclopentylmethyl)-7-fluoro-2-oxo-1,2-dihydro-3H-indol-3-ylidene]-N,N-dimethylacetamide], the melting point lay in the range of 51 to 53 °C. In addition, the concentration for half-maximal inhibition (IC50) on Cytochrome P450(2D6) is over 25 µM. For the same molecule, the EC50 at human TRPA1 came out at 3.76 µM.

In the case of `CC[C@H](C)CN1C(=O)/C(=C/C(=O)O)c2cccc(F)c21` [Example 47, (2E)-{7-fluoro-1-[(2S)-2-methylbutyl]-2-oxo-1,2-dihydro-3H-indol-3-ylidene}acetic acid], the melting point lay within 137 to 139 °C. For the same molecule, the EC50 at human TRPA1 was found to be 1.01 µM. Further, in the data set with gastric emptying of rats, the ED50 turned out to be 0.61 mg/kg.

`CC(C)CCN1C(=O)/C(=C/C(=O)O)c2cccc(F)c21` [Example 49, (2E)-[7-fluoro-1-(3-methylbutyl)-2-oxo-1,2-dihydro-3H-indol-3-ylidene]acetic acid]: the melting point lay in the range of 142 to 144 °C. Further, the concentration for a half-maximal effect (EC50) on human TRPA1 was found to be 0.83 µM.

As for `CN(C)C(=O)/C=C1/C(=O)N(CC2CCCCC2)c2ccccc21` [Example 59, (2E)-2-[1-(cyclohexylmethyl)-2-oxo-1,2-dihydro-3H-indol-3-ylidene]-N,N-dimethylacetamide], the melting point lay within 80 to 82 °C.

Molecule `O=C(/C=C1/C(=O)N(CC2CCCCC2)c2ccccc21)N1CCC1` [Example 61, (3E)-3-(2-azetidin-1-yl-2-oxoethylidene)-1-(cyclohexylmethyl)-1,3-dihydro-2H-indol-2-one] had a melting point of 163 to 165 °C.

On to `O=C(/C=C1/C(=O)N(CC2CCCC2)c2ccccc21)N1CCC1` [Example 62, (3E)-3-(2-azetidin-1-yl-2-oxoethylidene)-1-(cyclopentylmethyl)-1,3-dihydro-2H-indol-2-one], for which the melting point was 111 to 113 °C.

`CCC(CC)CN1C(=O)/C(=C/C(=O)O)c2ccccc21` [Example 63, (2E)-[1-(2-ethylbutyl)-2-oxo-1,2-dihydro-3H-indol-3-ylidene]acetic acid] displayed a melting point of 147 to 149 °C.

`CCC(CC)CN1C(=O)/C(=C/C(=O)N2CCCC2)c2ccccc21` [Example 64, (3E)-1-(2-ethylbutyl)-3-(2-oxo-2-pyrrolidin-1-ylethylidene)-1,3-dihydro-2H-indol-2-one]: the melting point was 71 to 73 °C.

`CCC(CC)CN1C(=O)/C(=C/C(=O)N2CCC2)c2ccccc21` [Example 65, (3E)-3-(2-azetidin-1-yl-2-oxoethylidene)-1-(2-ethylbutyl)-1,3-dihydro-2H-indol-2-one] returned a melting point of 116 to 118 °C.

In the case of `O=C(/C=C1/C(=O)N(CC2CCC2)c2ccccc21)N1CCC1` [Example 66, (3E)-3-(2-azetidin-1-yl-2-oxoethylidene)-1-(cyclobutylmethyl)-1,3-dihydro-2H-indol-2-one], the melting point lay in the range of 133 to 135 °C.

Molecule `O=C(/C=C1/C(=O)N(CC2CCC2)c2ccccc21)N1CCCC1` [Example 67, (3E)-1-(cyclobutylmethyl)-3-(2-oxo-2-pyrrolidin-1-ylethylidene)-1,3-dihydro-2H-indol-2-one] registered a melting point of 108 to 110 °C.

Take `C#CCN1C(=O)/C(=C/C(C)=O)c2ccccc21` [comparative compound 2, (3E)-3-(2-oxopropyridene)-1-prop-2-in-1-yl-1,3-dihydro-2H-indol-2-one, reference compound]: the median effective dose (ED50) with gastric emptying of rats is 8.8 mg/kg.
